Results published in PubChem BioAssay (NCI).
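1) Cells in 96-well plates. 2) Compound, 48 h, 5 concentrations. 3) Linear interpolation between surrounding doses. 4) Unreached endpoint = highest concentration. At the GI50, growth is halved. TGI denotes the concentration required for complete inhibition of growth.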

Columns and labels:
Assay in all cases: inhibition of tumour cell growth, NCI panel, 48 h; in the data active means GI50 below about 0.43 µM; inactive means the rest
MALME-3M melanoma = test system: MALME-3M melanoma
KM12 colon = test system: KM12 colon
OVCAR-4 ovarian = test system: OVCAR-4 ovarian
SN12C renal = test system: SN12C renal
NCI-H522 lung = test system: NCI-H522 lung
RXF 393 renal = test system: RXF 393 renal
NCI-H23 lung = test system: NCI-H23 lung
UACC-62 melanoma = test system: UACC-62 melanoma
SK-MEL-28 melanoma = test system: SK-MEL-28 melanoma
UO-31 renal = test system: UO-31 renal
786-0 renal = test system: 786-0 renal

C[N+](C)(C)CC(=O)N/N=c1\cc(C(=O)Nc2ccc(N=O)cc2C#N)oc2cc(O)ccc12
> 100 µM: TGI (MALME-3M melanoma) | TGI (KM12 colon) | TGI (OVCAR-4 ovarian) | TGI (SN12C renal) | TGI (NCI-H522 lung) | TGI (RXF 393 renal) | TGI (NCI-H23 lung) | TGI (UACC-62 melanoma) | TGI (SK-MEL-28 melanoma) | TGI (UO-31 renal) | TGI (786-0 renal)

Nc1ccccc1Nc1ccccc1C(=O)[O-].Nc1ccccc1Nc1ccccc1C(=O)[O-].[Cu+2]
> 100 µM: TGI (MALME-3M melanoma) | TGI (KM12 colon) | TGI (OVCAR-4 ovarian) | TGI (SN12C renal) | TGI (NCI-H522 lung) | TGI (NCI-H23 lung) | TGI (SK-MEL-28 melanoma) | TGI (UO-31 renal) | TGI (786-0 renal)
inactive: GI50 (OVCAR-4 ovarian) 37.7 µM
44.3 µM: TGI (UACC-62 melanoma)

COC(=O)c1cc(CC(C)C)c2c(c1)[nH]c1ccccc12
> 100 µM: TGI (MALME-3M melanoma) | TGI (KM12 colon) | TGI (OVCAR-4 ovarian) | TGI (SN12C renal) | TGI (NCI-H522 lung) | TGI (NCI-H23 lung) | TGI (UACC-62 melanoma) | TGI (SK-MEL-28 melanoma) | TGI (UO-31 renal) | TGI (786-0 renal)

COC1O[C@H]2CCN(C(=O)OCc3ccccc3)[C@H]2[C@H]1OCc1ccccc1 (some centres not stated)
> 100 µM: TGI (MALME-3M melanoma) | TGI (KM12 colon) | TGI (OVCAR-4 ovarian) | TGI (SN12C renal) | TGI (NCI-H522 lung) | TGI (RXF 393 renal) | TGI (SK-MEL-28 melanoma) | TGI (786-0 renal)
> 90.5 µM: TGI (NCI-H23 lung)
64.4 µM: TGI (UACC-62 melanoma)
97.7 µM: TGI (UO-31 renal)

CC12CC(c3ccccc3O1)C(C(=O)Nc1ccc(F)cc1)C(=O)N2 (configuration not stated)
> 100 µM: TGI (MALME-3M melanoma) | TGI (KM12 colon) | TGI (OVCAR-4 ovarian) | TGI (NCI-H522 lung) | TGI (NCI-H23 lung) | TGI (UACC-62 melanoma) | TGI (SK-MEL-28 melanoma) | TGI (UO-31 renal) | TGI (786-0 renal)

Cc1cc(=O)cc2sc3c(C)cccc3nc1-2
30 µM: TGI (OVCAR-4 ovarian)
> 100 µM: TGI (MALME-3M melanoma) | TGI (NCI-H522 lung) | TGI (RXF 393 renal) | TGI (NCI-H23 lung) | TGI (SK-MEL-28 melanoma) | TGI (UO-31 renal)
32.2 µM: TGI (786-0 renal)
48.2 µM: TGI (KM12 colon)
78.7 µM: TGI (SN12C renal)

COc1ccc2nc(-c3ccc(OCc4ccccc4)cc3)ccc2c1
> 100 µM: TGI (MALME-3M melanoma) | TGI (KM12 colon) | TGI (OVCAR-4 ovarian) | TGI (SN12C renal) | TGI (NCI-H522 lung) | TGI (RXF 393 renal) | TGI (NCI-H23 lung) | TGI (UACC-62 melanoma) | TGI (SK-MEL-28 melanoma) | TGI (UO-31 renal) | TGI (786-0 renal)

O=C1CCCN(c2ccccc2)N1
> 100 µM: TGI (MALME-3M melanoma) | TGI (KM12 colon) | TGI (OVCAR-4 ovarian) | TGI (SN12C renal) | TGI (NCI-H522 lung) | TGI (RXF 393 renal) | TGI (UACC-62 melanoma) | TGI (SK-MEL-28 melanoma) | TGI (UO-31 renal) | TGI (786-0 renal)

COc1cc(COC(=O)N[C@H](C(=O)O)C(C)(C)C)c([N+](=O)[O-])cc1OC
> 100 µM: TGI (MALME-3M melanoma) | TGI (KM12 colon) | TGI (SN12C renal) | TGI (RXF 393 renal) | TGI (NCI-H23 lung) | TGI (UACC-62 melanoma) | TGI (SK-MEL-28 melanoma) | TGI (UO-31 renal) | TGI (786-0 renal)

CCOC(=O)C1=C(C)N(c2ccccc2)C2=C(C(=O)N(c3ccccc3)C2c2ccccc2)C1c1ccccc1 (configuration not stated)
> 100 µM: TGI (MALME-3M melanoma) | TGI (KM12 colon) | TGI (OVCAR-4 ovarian) | TGI (SN12C renal) | TGI (NCI-H522 lung) | TGI (RXF 393 renal) | TGI (NCI-H23 lung) | TGI (UACC-62 melanoma) | TGI (SK-MEL-28 melanoma) | TGI (UO-31 renal) | TGI (786-0 renal)

COc1ccc(/C(=C/n2ccnc2)C(=O)c2ccc(OC)c(OC)c2)cc1
> 100 µM: TGI (MALME-3M melanoma) | TGI (KM12 colon) | TGI (OVCAR-4 ovarian) | TGI (SN12C renal) | TGI (NCI-H522 lung) | TGI (NCI-H23 lung) | TGI (UACC-62 melanoma) | TGI (SK-MEL-28 melanoma) | TGI (UO-31 renal) | TGI (786-0 renal)

CC(C)C(Sc1nc(-c2ccccc2)c(-c2ccccc2)[nH]1)C(=O)NNC(=S)Nc1ccccc1 (configuration not stated)
35.8 µM: TGI (UO-31 renal) | TGI (786-0 renal)
21.5 µM: TGI (NCI-H522 lung)
41.1 µM: TGI (SK-MEL-28 melanoma)
28.9 µM: TGI (KM12 colon)
37.2 µM: TGI (NCI-H23 lung)
33.3 µM: TGI (MALME-3M melanoma)
33.8 µM: TGI (SN12C renal)
12.4 µM: TGI (UACC-62 melanoma)
79.2 µM: TGI (OVCAR-4 ovarian)

O=C1NC(c2ccc(O)cc2)C2CCC1C2 (configuration not stated)
> 100 µM: TGI (MALME-3M melanoma) | TGI (KM12 colon) | TGI (OVCAR-4 ovarian) | TGI (SN12C renal) | TGI (NCI-H522 lung) | TGI (NCI-H23 lung) | TGI (UACC-62 melanoma) | TGI (SK-MEL-28 melanoma) | TGI (UO-31 renal) | TGI (786-0 renal)

CC(C)CC(N)C(=O)OCN1C(=O)C2C3C=CC(C2C1=O)C1C2C(=O)N(COC(=O)C(N)CC(C)C)C(=O)C2C31 (configuration not stated)
> 100 µM: TGI (MALME-3M melanoma) | TGI (KM12 colon) | TGI (OVCAR-4 ovarian) | TGI (SN12C renal) | TGI (NCI-H522 lung) | TGI (RXF 393 renal) | TGI (NCI-H23 lung) | TGI (UACC-62 melanoma) | TGI (SK-MEL-28 melanoma) | TGI (UO-31 renal) | TGI (786-0 renal)

Nc1nc2ncc(SCc3ccc(C(=O)NC(CCC(=O)O)C(=O)O)cc3)cc2c(=O)[nH]1 (configuration not stated)
> 100 µM: TGI (MALME-3M melanoma) | TGI (KM12 colon) | TGI (OVCAR-4 ovarian) | TGI (SN12C renal) | TGI (NCI-H522 lung) | TGI (NCI-H23 lung) | TGI (UACC-62 melanoma) | TGI (SK-MEL-28 melanoma) | TGI (UO-31 renal) | TGI (786-0 renal)

COC1(C)CC2N(C(=O)c3ccccc3)N=C(c3ccccc3)CC2(C)O1 (configuration not stated)
> 100 µM: TGI (MALME-3M melanoma) | TGI (KM12 colon) | TGI (OVCAR-4 ovarian) | TGI (SN12C renal) | TGI (NCI-H522 lung) | TGI (UACC-62 melanoma) | TGI (UO-31 renal) | TGI (786-0 renal)

COc1ccc(C2C(Cl)C(=O)N2NC(=O)c2ccc(NC(C)=O)cc2)cc1 (configuration not stated)
> 100 µM: TGI (MALME-3M melanoma) | TGI (OVCAR-4 ovarian) | TGI (SN12C renal) | TGI (NCI-H522 lung) | TGI (RXF 393 renal) | TGI (NCI-H23 lung) | TGI (UACC-62 melanoma) | TGI (SK-MEL-28 melanoma) | TGI (UO-31 renal) | TGI (786-0 renal)
